In patent US20120107275A1, “FUSED HETEROCYCLIC DERIVATIVES AND METHODS OF USE” (Amgen Inc., priority 2006, published 2012):

Columns and labels:
[1] = biological target: T1, c-Met kinase domain (GST-cMet) (Homo sapiens, UniProt P08581); experiment: c-Met receptor assay (HTRF kinase assay with GST-cMet (P) enzyme, gastrin and ATP); assay type: biochemical; conditions: for IC50: c-Met receptor assay; for Ki: illustrative activity values, HTRF kinase assay with GST-cMet (P) enzyme
T1 construct: A PCR product covering residues 1058-1365 of c-Met (c-Met kinase domain); made in house; host or cells: High5 insect cells (baculovirus, BacToBac)
T1 sequence (P08581 1058-1365): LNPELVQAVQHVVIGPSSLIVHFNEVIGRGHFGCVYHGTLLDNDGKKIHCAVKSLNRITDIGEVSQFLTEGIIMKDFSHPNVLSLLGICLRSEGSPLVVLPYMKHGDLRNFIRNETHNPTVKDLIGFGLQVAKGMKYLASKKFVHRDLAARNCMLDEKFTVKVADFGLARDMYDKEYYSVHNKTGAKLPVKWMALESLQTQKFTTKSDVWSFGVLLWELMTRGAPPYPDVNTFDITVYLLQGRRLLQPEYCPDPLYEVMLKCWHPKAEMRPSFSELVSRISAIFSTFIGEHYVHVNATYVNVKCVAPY
Procedure: Cloning, Expression and Purification of c-Met Kinase Domain
The PCR product is cloned into a modified pFastBac1 expression vector (harboring the gene for S. japonicum glutathione S-transferase immediately upstream of the multiple cloning site) using standard molecular biological techniques. The GST-c-Met kinase domain fusion (GST-Met) gene is transposed into full-length baculovirus DNA using the BacToBac™ system (Invitrogen). High5 cells are infected with the recombinant baculovirus for 72 h at 27° C. The infected cells are harvested by centrifugation and the pellet is stored at −80° C. The pellet is resuspended in buffer A (50 mM HEPES, pH 8.0, 0.25 M NaCl, 10 mM 2-mercaptoethanol, 10% (w/v) glycerol, 0.5% (v/v) protease inhibitor cocktail (Sigma P8340), stirred at 4° C. to homogeneity, and the cells are disrupted by microfluidization (Microfluidics) at 10,000 psi. The resulting lysate is centrifuged at 50,000×g for 90 min at 4° C., and the supernatant is adsorbed onto 10 mL of glutathione Sepharose™ 4B (Amersham) by batch method. The slurry is rocked gently overnight at 4° C. The glutathione resin is harvested by centrifugation and washed three times with 40 mL buffer A by batch method. The resin is washed three times with buffer B (buffer A adjusted to 0.1 M NaCl, less protease inhibitors). The protein is eluted with buffer B containing 25 mM reduced glutathione. Eluted fractions are analyzed by SDS-PAGE and concentrated to <10 mL (˜10 mg/mL total protein). The concentrated protein is separated by Superdex™ 200 (Amersham) size exclusion chromatography in buffer C (25 mM Tris, pH 7.5, 0.1 M NaCl, 10 mM 2-mercaptoethanol, 10% glycerol). The fractions are analyzed by SDS-PAGE and the appropriate fractions are pooled and concentrated to ˜1 mg/mL. The protein is aliquotted and stored at −80° C.
Alternative Purification of Human GST-cMET from Baculovirus Cells
The resin is washed with 10 column volumes (100 mL) of Lysis Buffer. […] The elution is collected as 15 mL fractions. Aliquots of the elution fractions are run on SDS PAGE (12% Tris Glycine gel, Invitrogen, #EC6005BOX). The gel is stained with 0.25% Coomassie Blue stain. Fractions with GST-cMET are concentrated with a Vivaspin 20 mL Concentrator (#VS2002; […]) to a final volume less than 2.0 ml. […] The GST-cMET is eluted with an isocratic run of the above buffer, with the eluent collected in 1.0 mL fractions. Fractions with significant OD280 readings are run on another 12% Tris Glycine gel. The peak tubes with GST-cMET are pooled and the OD280 is read with the column buffer listed above as the blank buffer.
Phosphorylation of the purified GST-cMET is performed by incubating the protein for 3 h at RT with the following:
After incubation, the solution is concentrated in a Vivaspin 20 ml Concentrator to a volume less than 2.00 ml. The solution is applied to the same Superdex 75 16/60 column used above after re-equilibration. The GST-cMET is eluted as described above. The elution fractions corresponding to the first eluted peak on the chromatogram are run on a 12% Tris Glycine gel, as above, to identify the fractions with GST-cMET. Fractions are pooled and the OD280 is read with the column buffer used as the blank.
A Kinase reaction Buffer is prepared as follows:
When the assay is carried out, freshly add:
The HTRF buffer contains:
1. […] 2. […] Then incubate the plate at RT for 30 min. 3.
Use Biomek FX to add 20 μl ATP and Gastrin working solution to the assay plate to start reaction, incubate the plate at RT for 1 h. 4.
KM ATP, KM gastrin for various enzymes were determined by HTRF/^33P labeling and HTRF methods.

c-Met [2] = biological target: T2, c-Met (Homo sapiens, UniProt P08581); experiment: c-Met cell-based autophosphorylation assay, PC3 cells (HGF stimulated, IGEN readout); conditions: HGF 250 ng/mL
T2 construct: host or cells: PC3 (human)
T2 sequence (P08581 25-1390): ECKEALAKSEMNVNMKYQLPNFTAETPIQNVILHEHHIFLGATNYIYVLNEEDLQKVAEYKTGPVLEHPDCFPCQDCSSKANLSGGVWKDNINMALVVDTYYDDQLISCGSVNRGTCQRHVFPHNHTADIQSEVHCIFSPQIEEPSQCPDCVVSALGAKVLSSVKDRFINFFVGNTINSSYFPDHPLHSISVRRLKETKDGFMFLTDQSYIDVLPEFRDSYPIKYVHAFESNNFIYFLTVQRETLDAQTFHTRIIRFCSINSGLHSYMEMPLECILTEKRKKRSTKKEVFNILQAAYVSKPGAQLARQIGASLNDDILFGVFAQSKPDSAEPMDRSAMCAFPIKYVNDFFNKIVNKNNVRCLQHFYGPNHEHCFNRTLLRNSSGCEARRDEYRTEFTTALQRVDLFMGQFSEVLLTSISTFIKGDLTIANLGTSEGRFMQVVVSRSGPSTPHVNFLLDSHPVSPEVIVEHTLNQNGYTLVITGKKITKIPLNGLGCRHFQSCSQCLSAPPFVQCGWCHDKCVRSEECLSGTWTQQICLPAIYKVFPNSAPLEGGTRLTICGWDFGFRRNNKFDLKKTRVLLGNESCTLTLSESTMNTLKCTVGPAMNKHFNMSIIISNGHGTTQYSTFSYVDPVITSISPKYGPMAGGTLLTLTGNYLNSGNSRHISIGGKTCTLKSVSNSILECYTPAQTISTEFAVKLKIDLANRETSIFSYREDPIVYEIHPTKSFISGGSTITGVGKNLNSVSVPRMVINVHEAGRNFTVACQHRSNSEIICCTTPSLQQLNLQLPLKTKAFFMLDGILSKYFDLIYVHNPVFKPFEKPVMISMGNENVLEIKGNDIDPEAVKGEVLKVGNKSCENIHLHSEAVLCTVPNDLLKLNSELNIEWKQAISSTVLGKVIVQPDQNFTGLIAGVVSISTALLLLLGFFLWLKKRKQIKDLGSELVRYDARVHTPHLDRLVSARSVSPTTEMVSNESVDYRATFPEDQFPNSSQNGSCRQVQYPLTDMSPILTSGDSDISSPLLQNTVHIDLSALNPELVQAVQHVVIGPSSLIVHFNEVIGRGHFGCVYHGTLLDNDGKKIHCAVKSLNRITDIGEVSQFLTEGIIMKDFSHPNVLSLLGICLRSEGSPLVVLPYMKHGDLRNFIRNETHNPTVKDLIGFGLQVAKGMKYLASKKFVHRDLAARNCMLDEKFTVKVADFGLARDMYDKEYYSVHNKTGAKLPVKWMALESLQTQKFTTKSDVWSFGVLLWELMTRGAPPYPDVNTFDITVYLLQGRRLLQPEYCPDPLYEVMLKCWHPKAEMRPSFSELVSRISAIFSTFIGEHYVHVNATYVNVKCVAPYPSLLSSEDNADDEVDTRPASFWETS
Procedure: (§1) c-Met Cell-Based Autophosphorylation Assay
(§2) Human PC3 and mouse CT26 cells are available obtained from ATCC. […] 2×10^4 cells in medium were plated per well in a 96 well plate and incubated at 37° C. overnight. The cells were serum-starved by replacing the growth media with basic medium (DMEM low glucose+0.1 BSA, 120 μL per well) at 37° C. for 16 h. […] Compound samples (2.4 μL per well) were diluted with basic medium (240 μL) in a 96 well plate. […] The cells were incubated at 37° C. for 1 h. A (2 mg/mL) solution of CHO-HGF (7.5 μL) was diluted with 30 mL basic medium to provide a final concentration of 500 ng/mL. This HGF-containing media (120 μL) was transferred to a 96 well plate. Compounds (1.2 μL) was added to the HGF-containing media and mixed well.
(§3) BSA/0.1% Tween20) by rotating for 30 min at RT. Antibody beads (25 μL) were transferred to a 96 well plate. Cell lysate solution (25 μL) was transferred added and the plate was shaken at RT for 1 h. […] 1×PBS (175 μL) was added to each well and the electrochemiluminescence was read by an IGEN M8. Raw data was analyzed using a 4-parameter fit equation in XLFit. IC50 values are then determined using Grafit software.

c-Met [3] = biological target: T3, c-Met (Mus musculus, UniProt P16056); experiment: c-Met cell-based autophosphorylation assay, CT26 cells (HGF stimulated, IGEN readout); conditions: HGF 250 ng/mL
T3 construct: host or cells: CT26 (mouse)
T3 sequence (P16056 25-1379): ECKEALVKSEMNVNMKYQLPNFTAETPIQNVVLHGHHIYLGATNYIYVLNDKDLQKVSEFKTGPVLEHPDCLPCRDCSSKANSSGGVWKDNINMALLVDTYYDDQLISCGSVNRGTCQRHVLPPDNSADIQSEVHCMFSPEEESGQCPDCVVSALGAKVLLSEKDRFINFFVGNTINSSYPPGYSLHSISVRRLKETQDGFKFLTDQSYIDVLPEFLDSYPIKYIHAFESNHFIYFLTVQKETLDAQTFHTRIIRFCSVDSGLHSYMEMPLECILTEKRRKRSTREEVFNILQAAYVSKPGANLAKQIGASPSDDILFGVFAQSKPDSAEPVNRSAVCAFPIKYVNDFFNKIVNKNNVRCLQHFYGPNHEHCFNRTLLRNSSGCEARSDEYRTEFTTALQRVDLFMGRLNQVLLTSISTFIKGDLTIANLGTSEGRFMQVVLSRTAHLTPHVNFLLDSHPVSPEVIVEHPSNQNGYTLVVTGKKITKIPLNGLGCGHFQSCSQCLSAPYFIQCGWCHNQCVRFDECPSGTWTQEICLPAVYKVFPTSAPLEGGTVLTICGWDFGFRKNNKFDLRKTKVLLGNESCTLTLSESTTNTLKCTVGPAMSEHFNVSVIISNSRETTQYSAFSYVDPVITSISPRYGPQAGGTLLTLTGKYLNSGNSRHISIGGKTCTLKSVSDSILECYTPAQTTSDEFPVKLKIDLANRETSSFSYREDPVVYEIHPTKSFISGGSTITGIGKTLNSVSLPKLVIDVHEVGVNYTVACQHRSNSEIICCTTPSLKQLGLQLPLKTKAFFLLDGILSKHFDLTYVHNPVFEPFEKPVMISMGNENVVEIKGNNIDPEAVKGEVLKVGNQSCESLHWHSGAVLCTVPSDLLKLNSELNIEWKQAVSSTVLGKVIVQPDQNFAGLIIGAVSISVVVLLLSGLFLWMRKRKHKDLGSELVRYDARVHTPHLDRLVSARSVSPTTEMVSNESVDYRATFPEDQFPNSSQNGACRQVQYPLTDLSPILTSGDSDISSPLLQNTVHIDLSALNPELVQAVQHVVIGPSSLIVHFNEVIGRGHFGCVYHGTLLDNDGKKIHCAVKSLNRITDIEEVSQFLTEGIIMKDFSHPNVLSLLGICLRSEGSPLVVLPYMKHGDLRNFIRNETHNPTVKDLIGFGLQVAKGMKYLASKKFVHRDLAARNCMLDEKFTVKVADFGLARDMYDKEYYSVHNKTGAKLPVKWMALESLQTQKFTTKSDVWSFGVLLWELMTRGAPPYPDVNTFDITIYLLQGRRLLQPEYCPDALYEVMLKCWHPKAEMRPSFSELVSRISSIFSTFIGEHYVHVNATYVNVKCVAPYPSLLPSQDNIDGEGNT
Procedure: as §1, §2, §3

| SMILES | IC50 [1] [nM] | IC50 (c-Met [2]) [nM] | IC50 (c-Met [3]) [nM] | Ki [1] [nM] |
| --- | --- | --- | --- | --- |
| CNC(=O)c1ccc(-c2ccc3nnc(COc4ccnc5cc(OC)ccc45)n3n2)s1 [Example 30, 5-(3-((7-methoxyquinolin-4-yloxy)methyl)-[1,2,4]triazolo[4,3-b]pyridazin-6-yl)-N-methylthiophene-2-carboxamide] | < 500 |  |  |  |
| c1ccc(-c2ccc3nnc(COc4ccnc5ccccc45)n3n2)cc1 [Example 2, 4-((6-phenyl-[1,2,4]triazolo[4,3-b]pyridazin-3-yl)methoxy)quinoline] |  | < 1000 | < 1000 |  |
| COc1cnc2c(NCc3nnc4ccc(-c5cc(C(=O)O)no5)nn34)ccnc2c1 [Example 36, 5-(3-((7-methoxy-1,5-naphthyridin-4-ylamino)methyl)-[1,2,4]triazolo[4,3-b]pyridazin-6-yl)isoxazole-3-carboxylic acid] | < 500 | < 1000 | < 1000 |  |
| Fc1cc(-c2ccccc2)cn2c(Cc3ccc4ncccc4c3)nnc12 [Example 437, 6-((8-fluoro-6-phenyl-[1,2,4]triazolo[4,3-a]pyridin-3-yl)methyl)quinoline] |  |  |  | 36.4 |

Continued, values first:

| IC50 [1] [nM] | IC50 (c-Met [2]) [nM] | IC50 (c-Met [3]) [nM] | Ki [1] [nM] | SMILES |
| --- | --- | --- | --- | --- |
|  | < 1000 | < 1000 |  | COc1ccc2c(OCc3nnc4ccc(-c5ccc(N(C)C)nc5)nn34)ccnc2c1 [Example 43, 5-(3-((7-methoxyquinolin-4-yloxy)methyl)-[1,2,4]triazolo[4,3-b]pyridazin-6-yl)-N,N-dimethylpyridin-2-amine] |
|  |  |  | 3.2 | C[C@H](c1nnc2c(F)cc(-c3cnn(CCO)c3)cn12)n1ccc2ncccc2c1=O [Example 509, (R)-6-(1-(8-fluoro-6-(1-(2-hydroxyethyl)-1H-pyrazol-4-yl)-[1,2,4]triazolo[4,3-a]pyridin-3-yl)ethyl)-1,6-naphthyridin-5(6H)-one] |
| < 500 | < 1000 | < 1000 |  | COc1cnc2c(NCc3nnc4ccc(-c5cc(CO)no5)nn34)ccnc2c1 [Example 37, (5-(3-((7-methoxy-1,5-naphthyridin-4-ylamino)methyl)-[1,2,4]triazolo[4,3-b]pyridazin-6-yl)isoxazol-3-yl)methanol] |
|  |  |  | 0.5 | Cc1csc(-c2cc(F)c3nnc([C@@H](C)n4ccc5ncccc5c4=O)n3c2)c1 [Example 511, (R)-6-(1-(8-fluoro-6-(4-methylthiophen-2-yl)-[1,2,4]-triazolo[4,3-a]pyridin-3-yl)ethyl)-1,6-naphthyridin-5(6H)-one] |
|  |  |  | 0.3 | Cc1cc(-c2cc(F)c3nnc([C@@H](C)n4ccc5ncc(-c6cnn(C)c6)cc5c4=O)n3c2)on1 [Example 527, 6-((R)-1-(8-fluoro-6-(3-methylisoxazol-5-yl)-[1,2,4]-triazolo[4,3-a]pyridin-3-yl)ethyl)-3-(1-methyl-1H-pyrazol-4-yl)-1,6-naphthyridin-5(6H)-one] |
|  |  |  | 394 | c1ccc(-c2ccc3nnc(Cc4ccc5c(c4)OCO5)n3n2)cc1 [Example 326] |
